For eleven compounds, IC50 results are on record in patent publication US12479831B2, “Substituted N(-methyl-D3)pyridazine-3-carboxamide or M-(methyl-D3)-nicotinamide compounds as IL-12, IL-23 and/or IFNα modulators” (BRISTOL-MYERS SQUIBB COMPANY, priority 2020, dated 2025).

Each structure is given as a SMILES string.

In the experiment the test system is IFNα-Induced STAT Phosphorylation in Human Whole Blood. The experiment is described as follows: IFNα-Induced STAT Phosphorylation in Human Whole Blood. It is filed as cell-based. To be noted: 1 h incubation with compound, 1000 U/mL recombinant human IFNα A/D for 15 min, pSTAT5 (pY694) median fluorescence intensity in CD3 positive population, read-out: hWB IC50. On the procedure: IFNα-Induced STAT Phosphorylation in Human Whole Blood
After an hour long incubation with compound, human whole blood (drawn with either EDTA or ACD-A as anti-coagulant) was stimulated with 1000 U/mL recombinant human IFNα A/D (R&D Systems 11200-2) for 15 min. The stimulation was stopped by adding Fix/Lyse buffer (BD 558049). Cells were stained with a CD3 FITC antibody (BD 555916), washed, and permeabilized on ice using Perm III buffer (BD 558050). […] The amount of pSTAT5 expression was quantitated by median fluorescence intensity after gating on the CD3 positive population.
IFNα-Induced STAT Phosphorylation in Human Whole Blood Inhibition Data
As to `[2H]C([2H])([2H])NC(=O)c1nnc(NC(=O)C2CC2)cc1Nc1cccc(-c2ncc3ncn(C)c3n2)c1OC` [Example 1, 6-(Cyclopropanecarboxamido)-4-((2-methoxy-3-(9-methyl-9H-purin-2-yl)phenyl)amino)-N-(methyl-d3)pyridazine-3-carboxamide], the IC50 stood at 254 nM.
For `[2H]C([2H])([2H])NC(=O)c1nnc(NC(=O)C2CC2)cc1Nc1cccc(-c2ncc(C#N)cn2)c1OC` [Example 2, 4-((3-(5-cyanopyrimidin-2-yl)-2-methoxyphenyl)amino)-6-(cyclopropanecarboxamido)-N-(methyl-d3)pyridazine-3-carboxamide], the IC50 stood at 426 nM.
In the case of `[2H]C([2H])([2H])NC(=O)c1nnc(NC(=O)C2CC2)cc1Nc1cccc(-c2nccc(C#N)n2)c1OC` [Example 3, 4-((3-(4-cyanopyrimidin-2-yl)-2-methoxyphenyl)amino)-6-(cyclopropanecarboxamido)-N-(methyl-d3)pyridazine-3-carboxamide], the IC50 stood at 144 nM.
`[2H]C([2H])([2H])NC(=O)c1nnc(NC(=O)C2CCC2)cc1Nc1cccc(-c2ncccn2)c1OC` [Example 4, 6-(cyclobutanecarboxamido)-4-((2-methoxy-3-(pyrimidin-2-yl)phenyl)amino)-N-(methyl-d3)pyridazine-3-carboxamide]: the IC50 is 348 nM.
Then `[2H]C([2H])([2H])NC(=O)c1nnc(NC(=O)C2CC2)cc1Nc1cc(F)cc(-c2ncccn2)c1OC` [Example 7, 6-(cyclopropanecarboxamido)-4-((5-fluoro-2-methoxy-3-(pyrimidin-2-yl)phenyl)amino)-N-(methyl-d3)pyridazine-3-carboxamide], with 196 nM; and `[2H]C([2H])([2H])NC(=O)c1nnc(NC(=O)C2CC2)cc1Nc1cccc(-c2ccc(=O)n(C)n2)c1OC` [Example 9, 6-(cyclopropanecarboxamido)-4-((2-methoxy-3-(1-methyl-6-oxo-1,6-dihydropyridazin-3-yl)phenyl)amino)-N-(methyl-d3)pyridazine-3-carboxamide], with 214 nM; and `[2H]C([2H])([2H])NC(=O)c1nnc(NC(=O)C2CC2)cc1Nc1cccc(-c2cn(C)c(=O)cn2)c1OC` [Example 10, 6-(cyclopropanecarboxamido)-4-((2-methoxy-3-(4-methyl-5-oxo-4,5-dihydropyrazin-2-yl)phenyl)amino)-N-(methyl-d3)pyridazine-3-carboxamide], with 194 nM.
Regarding `[2H]C([2H])([2H])NC(=O)c1nnc(NC(=O)C2CC2)cc1Nc1cccc(-c2cc(=O)n(C)cn2)c1OC` [Example 12, 6-(cyclopropanecarboxamido)-4-((2-methoxy-3-(1-methyl-6-oxo-1,6-dihydropyrimidin-4-yl)phenyl)amino)-N-(methyl-d3)pyridazine-3-carboxamide], the IC50 was 204 nM.
Consider `[2H]C([2H])([2H])NC(=O)c1nnc(NC(=O)C2CC2)cc1Nc1cccc(-c2ncc(N3CCOCC3)cn2)c1OC` [Example 13, 6-(cyclopropanecarboxamido)-4-((2-methoxy-3-(5-morpholinopyrimidin-2-yl)phenyl)amino)-N-(methyl-d3)pyridazine-3-carboxamide], for which the IC50 was 95 nM.
Then `[2H]C([2H])([2H])NC(=O)c1cnc(NC(=O)C2CC2)cc1Nc1cccc(-c2ncc(N3CCOCC3)cn2)c1OC` [Example 16, 6-(cyclopropanecarboxamido)-4-((2-methoxy-3-(5-morpholinopyrimidin-2-yl)phenyl)amino)-N-(methyl-d3)nicotinamide], with 54 nM.
With `[2H]C([2H])([2H])NC(=O)c1nnc(NC(=O)C2CC2)cc1Nc1cc(F)cc(-c2ccc(C(C)(C)O)nn2)c1OC` [Example 22, 6-(cyclopropanecarboxamido)-4-((5-fluoro-3-(6-(2-hydroxypropan-2-yl)pyridazin-3-yl)-2-methoxyphenyl)amino)-N-(methyl-d3)pyridazine-3-carboxamide], the IC50 turned out to be 120 nM.

For orientation: IC50 means the concentration needed to halve the response being measured.
